Measurements from US20120022163A1 (priority 2010, published 2012).
“Also recorded” adds a separate entry of the source. Like-named read-outs stand apart in the source and are kept apart here.

Assays:
PrP^sc [1] = assay type: in vivo, CD1 female mice; conditions: mice sacrificed at clinical end stage; brain
PrP^sc [2] = assay type: in vivo, CD1 female mice; conditions: ip infected mice; cerebellum, hippocampus and parietal cortex
[3] = mouse, in vivo, po
[4] = tested on: RML (Rocky Mountains Laboratories) strain of the mouse scrapie agent; assay type: in vivo, CD1 female mice; conditions: Log-Rank test
gamma secretase = conditions: cited from earlier work

With `O=C(O)C1(c2ccc(-c3ccc(Cl)c(Cl)c3)c(F)c2)CC1` [CHF 5074] the “content of PrP^sc among the different groups (Western blot)” value (PrP^sc [1]) was “without significant differences”, the “PrP^sc deposits in brain areas (immunohistochemistry), treated compared to controls” value (PrP^sc [2]) was “significant lower PrP^sc deposits” and the “safety and tolerability of chronic administration” value [3] was “safe and well tolerate”. The “survival time, treated versus untreated” value ([4]; ic infected mice) was “no difference; also recorded: no effect”, the “survival time, treated versus untreated” value ([4]; ip infected mice) was “significantly increases the survival; also recorded: significant difference; also recorded: significantly prolongs survival times” and the “mode of action on gamma secretase” value (gamma secretase) was “gamma secretase modulator”.
